Data reported in patent US20230210834A1, “RNA METHYLTRANSFERASE INHIBITOR, SCREENING METHOD THEREFOR, ANTI-CANCER AGENT EFFICACY ASSESSMENT MARKER, AND KIT FOR EFFECTIVELY PREDICTING FTSJ1 INHIBITOR” (National University Corporation Okayama University, priority 2019, published 2023).

Key:
YAP/TAZ = assay: Screening: YAP/TAZ activity reporter (8xGTIIC plasmid) assay in NUGC3 cells (luminescence % of DMSO); type: cell-based, human; conditions: YAP/TAZ activity reporter (8×GTIIC), NUGC3 cells, luminescence relative to DMSO; concentration not given
Method: (§1) Human gastric cancer cell line NUGC3 was cultured in a DMEM medium (high glucose with L-glutamine and phenol red, produced by FUJIFILM Wako Pure Chemical Corporation) containing 10% fetal bovine serum (produced by Thermo Fisher Scientific Inc.) and penicillin-streptomycin (produced by FUJIFILM Wako Pure Chemical Corporation) (this medium is simply referred to below as “DMEM+10% FBS+1×P/S”). Then, the NUGC3 cells were seeded in a 60-mm culture dish (produced by BioLite) so that the cells were 80% confluent after 24 hours. Subsequently, 5 μg of a reporter plasmid and 15 μL of a lipofection reagent (transIT-LT1, produced by Mirus Bio LLC) were mixed in 500 μL of Opti-MEM medium (produced by Thermo Fisher Scientific, Inc.) to form a complex, which was added to the medium in which the NUGC3 cells were cultured in the 60-mm culture dish. For use as the reporter plasmid, 5 μg of a polyglutamine luciferase reporter was introduced (in the polyglutamine luciferase reporter, a Renilla luciferase expressed in the IRES was located as an internal standard downstream of the sequence of a firefly luciferase sequence to which polyglutamine was added). Alternatively, a YAP/TAZ activity reporter was used by simultaneously introducing 3 μg of 8×GTIIC plasmid and 2 μg of a Renilla luciferase reporter as an internal standard. After another 24 hours, the cells were exfoliated with a 0.05 w/v % trypsin-0.53 mmol/l EDTA-4Na solution (produced by FUJIFILM Wako Pure Chemical Corporation), and then seeded in a 96-well plate (produced by BioLite) so that the cells were 80% confluent after 24 hours. Twenty-four hours after seeding in the 96-well plate, the medium in each well was replaced with 100 μL of a medium (DMEM+10% FBS+an antibiotic) containing 10 μM or 5 μM of a compound for evaluation. After another 24 hours, the medium containing the compound was removed, and the 96-well plate was transferred on ice. Each well was washed with 100 μL of phosphate buffer (PBS, produced by FUJIFILM Wako Pure Chemical Corporation). Thereafter, 20 μL of Passive Lysis Buffer (1×) contained in a Dual-Luciferase Reporter Assay System (produced by Promega Corporation) was added. The plate was then gently shaken for 15 minutes at room temperature to lyse the cells. After confirming that the cells were lysed, 10 μL of the lysate was transferred from each well to each corresponding well of a white 96-well plate (produced by Greiner Bio-one). To each well of the white 96-well plate was added 100 μL of a mixture of a Luciferase Assay Buffer II and Luciferase Assay Substrate contained in the Dual-Luciferase Reporter Assay System (produced by Promega Corporation), whereby the luminescence of the firefly luciferase was induced, and the luminescence intensity was detected with a microluminometer (produced by Berthold Japan K.K.). Subsequently, 100 μL of a mixture of Stop & Glo Buffer and Stop & Glo Substrate contained in the Dual-Luciferase Reporter Assay System (produced by Promega Corporation) was added, whereby the luminescence of firefly luciferase was quenched while the luminescence of Renilla luciferase was induced, and the luminescence intensity was detected with a microluminometer (produced by Berthold Japan K.K.) in a manner similar to the above. The ratio of the luminescence intensity of the firefly luciferase and the luminescence intensity of the Renilla luciferase was calculated, and the luminescence intensity (%) of the wells containing each compound was calculated with the luminescence intensity of the well containing DMSO (dimethyl sulfoxide, used as a solvent for the compound liquids) taken as 100%. […] Unless otherwise specified, the measured values in the table represent the results obtained by evaluation with the addition of 10 μM of each compound for evaluation.

[1] = tested on: polyglutamine luciferase reporter; assay: Screening: polyglutamine luciferase reporter assay in NUGC3 cells (luminescence % of DMSO); type: cell-based, human; conditions: polyglutamine luciferase reporter, NUGC3 cells, luminescence relative to DMSO; concentration not given
Method: as §1

| Compound | 8×GTIIC (YAP/TAZ) | Polyglutamine [1] |
| --- | --- | --- |
| CCOc1cc(S(=O)(=O)C2CCC(NS(=O)(=O)c3ccccc3)CC2)ccc1COC (centres unmarked) [SA018] | 74.98% | 78.85% |
| Cc1ccc(C(C)(C)C)cc1S(=O)(=O)C1CCC(NS(=O)(=O)c2ccccc2)CC1 (centres unmarked) [SA019] | 66.45% | 55.62% |
| COc1ccc(S(=O)(=O)C2CCC(CS(=O)(=O)c3c(C)c(C)c(C)c(C)c3C)CC2)cc1 (centres unmarked) [SA020] | 36.19% | 27.71% |
| CCc1ccc(S(=O)(=O)C2CCC(CS(=O)(=O)c3cc(C)cc(C)c3)CC2)cc1 (centres unmarked) [SA021] | 70.64% | 44.6% |
| CCCC(=O)C1CCC(CS(=O)(=O)c2ccc3c(c2)CCC(=O)C3)CC1 (centres unmarked) [SA022] | 66.88% | 102.2% |
| Cc1cc(C)c(S(=O)(=O)CC2CC(C)(C)SC(C)(C)C2)cc1C [SA023] | 87.74% | 63.47% |
| CCCC(=O)C1CCC(CS(=O)(=O)c2ccc(C)cc2C)CC1 (centres unmarked) [SA025] | 46.27% | 49.45% |
| CCCC(=O)C1CCC(CS(=O)(=O)c2ccc(C)c(C)c2)CC1 (centres unmarked) [SA026] | 46.21% | 63.06% |
| Cc1c(C)c(C)c(S(=O)(=O)CC2CC(C)(C)CC(C)(C)C2)c(C)c1C [SA028] | 59.49% | 60.03% |
| CCCc1ccc(S(=O)(=O)CC2CCC(C3CC3)CC2)cc1OCC (centres unmarked) [SA029] | 65.65% | 58.64% |
| Cc1cccc(S(=O)(=O)CC2CCC(C3CC3)CC2)c1C (centres unmarked) [SA030] | 73.56% | 86.26% |
| O=S(=O)(CC1CCC(C2CC2)CC1)c1ccc2c(c1)CCCC2 (centres unmarked) [SA031] | 76.14% | 62.23% |
| Cc1cc(C)cc(S(=O)(=O)CC2CCC(C3CC3)CC2)c1 (centres unmarked) [SA032] | 88.64% | 80.29% |
| O=S(=O)(CC1CCC(C2CC2)CC1)c1ccc(C(F)(F)F)cc1 (centres unmarked) [SA033] | 96.16% | 96.01% |
| Cc1ccccc1S(=O)(=O)CC1CCC(C2CC2)CC1 (centres unmarked) [SA034] | 87.42% | 77.96% |
| Cc1ccc(S(=O)(=O)CC2CCC(C3CC3)CC2)c(C)c1 (centres unmarked) [SA035] | 116.6% | 98.96% |
| Cc1cccc(C)c1S(=O)(=O)CC1CCC(C2CC2)CC1 (centres unmarked) [SA036] | 57.59% | 71.57% |
| Cc1c(C)c(C)c(S(=O)(=O)CC2CCC(C3CC3)CC2)c(C)c1C (centres unmarked) [SA037] | 35.53% | 42.93% |
| O=S(=O)(CC1CCC(C2CC2)CC1)c1ccc2c(c1)CCCC2 (centres unmarked) [SA038] | 94.4% | 69.77% |
| CCCc1ccc(S(=O)(=O)CC2CCC(C3CC3)CC2)cc1 (centres unmarked) [SA039] | 56.65% | 97.44% |
| Cc1ccc(S(=O)(=O)C2CCC(CS(=O)(=O)c3ccccc3)CC2)cc1 (centres unmarked) [SA040] | 51.54% | 44.87% |
| Cc1cccc(S(=O)(=O)CC2CCC(C3CC3)CC2)c1 (centres unmarked) [SA041] | 87.17% | 88.82% |
| Cc1ccc(S(=O)(=O)CC2CCC(C3CC3)CC2)cc1C (centres unmarked) [SA042] | 100.9% | 94.62% |
| CCS(=O)(=O)C1CCC(CS(=O)(=O)c2ccc(C)cc2)CC1 (centres unmarked) [SA044] | 63.33% | 87.25% |
| CS(=O)(=O)C1CCC(CS(=O)(=O)c2ccc3c(c2)CCCC3)CC1 (centres unmarked) [SA046] | 83.81% | 75.23% |
| O=S(=O)(CC1CCC(S(=O)(=O)c2cccs2)CC1)c1ccc2c(c1)CCCC2 (centres unmarked) [SA047] | 56.12% | 47.4% |

| Compound | 8×GTIIC (YAP/TAZ) | Polyglutamine [1] |
| --- | --- | --- |
| O=S(=O)(CC1CCC(S(=O)(=O)c2ccccc2)CC1)c1ccccc1 (centres unmarked) [SA049] | 43.7% | 39.58% |
| Cc1ccc(S(=O)(=O)CC2CCC(C3CC3)CC2)c(C)c1 (centres unmarked) [SA050] | 92.26% | 60.42% |
| Cc1ccc(C)c(S(=O)(=O)CC2CCC(C3CC3)CC2)c1 (centres unmarked) [SA052] | 54.65% | 47.69% |
| Cc1cc(C(C)(C)C)cc(C)c1S(=O)(=O)CC1CCC(C2CC2)CC1 (centres unmarked) [SA053] | 55.02% | 35.39% |
| Cc1cccc(S(=O)(=O)CC2CCC(C3CC3)CC2)c1 (centres unmarked) [SA054] | 83.34% | 109.1% |
| Cc1ccc(S(=O)(=O)CC2CCC(C3CC3)CC2)cc1C (centres unmarked) [SA055] | 82.18% | 81.09% |
| Cc1ccc(S(=O)(=O)CC2CCC(C3CC3)CC2)c(C)c1 (centres unmarked) [SA057] | 73.76% | 79.6% |
| CC(C)c1ccc(S(=O)(=O)CC2CCC(C3CC3)CC2)cc1 (centres unmarked) [SA058] | 35.45% | 76.81% |
| Cc1ccccc1S(=O)(=O)CC1CCC(S(C)(=O)=O)CC1 (centres unmarked) [SA059] | 88.99% | 100.9% |
| Cc1ccc(S(=O)(=O)CC2CCC(S(C)(=O)=O)CC2)cc1 (centres unmarked) [SA060] | 90.52% | 92.41% |
| CS(=O)(=O)C1CCC(CS(=O)(=O)c2ccc3c(c2)CCCCC3)CC1 (centres unmarked) [SA061] | 96.27% | 66.4% |
| Cc1ccc(S(=O)(=O)CC2CCC(S(C)(=O)=O)CC2)cc1 (centres unmarked) [SA062] | 100.9% | 93.21% |
| CCc1ccc(S(=O)(=O)CC2CCC(S(C)(=O)=O)CC2)cc1CC (centres unmarked) [SA063] | 93.35% | 78.75% |
| Cc1ccc(C)c(S(=O)(=O)CC2CCC(S(C)(=O)=O)CC2)c1 (centres unmarked) [SA064] | 64.48% | 54.39% |
| CS(=O)(=O)C1CCC(CS(=O)(=O)c2ccc3c(c2)CCCC3)CC1 (centres unmarked) [SA065] | 39.43% | 47.58% |
| CC(C)(C)c1cc(C(C)(C)C)cc(S(=O)(=O)CC2CCC(C3CC3)CC2)c1 (centres unmarked) [SA066] | 64.4% | 66.16% |
| Cc1ccc(S(=O)(=O)CC2CCC(C3CC3)CC2)cc1 (centres unmarked) [SA067] | 75.49% | 75.3% |
| CCC1CCC(C(C)S(=O)(=O)c2c(C)cc(C(C)(C)C)cc2C)CC1 (centres unmarked) [SA068] | 110.2% | 81.58% |
| C=C(CCC)C1CCC(CS(=O)(=O)c2ccc(C)cc2C(C)(C)C)CC1 (centres unmarked) [SA069] | 67.61% | 76.83% |
| CC(C)(C)c1cc(C(C)(C)C)cc(S(=O)(=O)CC2CCC(S(C)(=O)=O)CC2)c1 (centres unmarked) [SA070] | 109.7% | 59.04% |
| O=S(=O)(CC1CCC(S(=O)(=O)C2CCCCC2)CC1)c1ccccc1 (centres unmarked) [SA071] | 138.5% | 61.72% |
| CC1CCC(S(=O)(=O)C2CCC(CS(=O)(=O)c3ccccc3)CC2)CC1 (centres unmarked) [SA072] | 68.16% | 73.98% |
| CC(=O)c1ccccc1S(=O)(=O)CC1CCC(S(C)(=O)=O)CC1 (centres unmarked) [SA074] | 88.44% | 92.5% |
| CCS(=O)(=O)C1CCC(CS(=O)(=O)c2ccc(C)cc2C)CC1 (centres unmarked) [SA075] | 95.02% | 110.7% |
| Cc1ccc(S(=O)(=O)CC2CCC(S(C)(=O)=O)CC2)c(C)c1 (centres unmarked) [SA076] | 64.29% | 98.03% |
| CCS(=O)(=O)C1CCC(CS(=O)(=O)c2cc(C(C)C)cc(C)c2C)CC1 (centres unmarked) [SA077] | 66.59% | 65.09% |
